# “Also recorded” adds a separate entry of the source. Oligonucleotides are written 5' to 3', each unit as a sugar letter and its base; * is a phosphorothioate linkage, no mark a phosphodiester; rarer units and linkages stand in square brackets, end groups in braces. Plain capitals give the bases only. e = 2'-O-(2-methoxyethyl) (MOE); [5mC] = 5-methylcytosine
# What was measured:
# [1] = test system: IKBKAP mRNA in GM04899 fibroblasts; assay: Exon 20 inclusion in FD patient skin fibroblast line GM04899 (RT-PCR); type: cell-based, human; settings: for % inclusion of exon 20: Lipofectamine 2000, two days, relative to IMR90 cells (100%)
# Protocol: To investigate the effect of ISIS 421992 on patient-derived fibroblasts, the patient skin fibroblast line GM04899 (Coriell Cell Repository) was utilized. The cell line was derived from an individual homozygous for the major FD mutation.
# GM04899 was cultured in minimal essential medium (Invitrogen) supplemented with non-essential amino acids (Invitrogen) and 20% (v/v) fetal bovine serum. The cells were grown to 40-50% confluence in 10-cm dishes. Cells were transfected with 2 nM, 5 nM, 25 nM, or 125 nM concentrations of ISIS 421992 using 12 μL Lipofectamine 2000 transfection reagent (Invitrogen). Two days later, cDNA synthesized from total RNA extracted from HEK-293 cells was amplified using the forward primer pCDNAF and reverse primer sequence IKAP21R4 to assay the splicing pattern of expressed RNAs by RT-PCR. To calculate exon 20 inclusion levels, the PCR amplicons were labeled with α^32P-dCTP. The PCR products were then separated by native PAGE, followed by phosphorimage analysis. The band intensities were quantified and values were normalized for the G+C content according to the DNA sequence. Multiple lanes for each condition represent independent experiments.
# A batch of cells was treated with solvent (NaOH) only of the kinetin solution as a control. RNA from IMR90, a wild-type normal diploid lung fibroblast cell line was used as positive control. The results are expressed as percent inclusion of exon 20 compared to the exon 20 inclusion (100%) of IKBKAP mRNA in IMR90 cells.
# human IKBKAP mRNA = assay: Exon 20 inclusion in adult transgenic mice after intracerebroventricular infusion; type: in vivo, mouse; settings: for Percent inclusion of exon 20 in human IKBKAP mRNA: thoracic spinal cord, day 8
# Protocol: To investigate the effect of ISIS 421992 in an animal model, transgenic mice that carry the entire human IKBKAP gene with the major FD mutation, in addition to being homozygous wild type at the mouse Ikbkap locus, were obtained from an NIH core facility.
# Adult mice were treated with ISIS 421992 administered by intracerebroventricular infusion at the rate of 50 μg/day, 100 μg/day, or 200 μg/day. The protocol has been previously described by Hua et al. (Genes Dev. 2010. 24: 1634-1644). Adult mice 3-4 months old and weighing 20-30 g, were anesthetized and placed on a digital stereotaxic instrument (David Kopf Instruments). A small burr hole at the surgical site 1.8 mm lateral to the sagittal suture and 0.3 mm posterior to the bregma suture was drilled through the skull above the right lateral ventricle. A cannula with a 2.2 mm stylet was positioned in the hole. The cannula was connected to an Alzet micro-osmotic pump (model 1007D, Durect Corporation) with a vinyl catheter. The pump, prefilled with the oligonucleotide solution or PBS only was implanted subcutaneously on the back and continuously infused the solution through the cannula into the lateral ventricle at a rate of 0.5 μL per hour. After a week of ICV infusion, the mice were euthanized on day 8 and RNA from the thoracic spinal cord of the transgenic mice was extracted using Trizol and following the manufacturer's protocol. Multiple lanes for each condition represent independent experiments.
substance,measurement,setting,value
"ISIS 421992: uniform 2′-MOE 20-mer, phosphate backbone; GTCGCAAACAGTACAATGGC, SEQ ID NO 61, intron 20 (eGeTe[5mC]eGe[5mC]eAeAeAe[5mC]eAeGeTeAe[5mC]eAeAeTeGeGe[5mC])",% inclusion of exon 20,"[1]; GM04899, 2 nM",79%
same,% inclusion of exon 20,"[1]; GM04899, 5 nM",95%
same,% inclusion of exon 20,"[1]; GM04899, 25 nM",96%
same,% inclusion of exon 20,"[1]; GM04899, 125 nM",97%
same,"effect on the splicing defect / full-length mRNA levels, in words",[1]; GM04899 fibroblasts,almost completely suppressed the splicing defect; also recorded: as effective as treatment with kinetin for 3 days in restoring full-length mRNA levels
same,Percent inclusion of exon 20 in human IKBKAP mRNA,human IKBKAP mRNA; ICV infusion 50 μg/day for a week,40%
same,Percent inclusion of exon 20 in human IKBKAP mRNA,human IKBKAP mRNA; ICV infusion 100 μg/day for a week,46%
same,Percent inclusion of exon 20 in human IKBKAP mRNA,human IKBKAP mRNA; ICV infusion 200 μg/day for a week,60%
same,"inclusion of exon 20 in human IKBKAP mRNA, in words",human IKBKAP mRNA; ICV infusion 50-200 μg/day,dose-dependent increase in the inclusion of exon 20

# Source: patent US11066668B2, “Compositions and methods for modulation of IKBKAP splicing” (Ionis Pharmaceuticals, Inc., priority 2012, dated 2021)
